# Laboratory results: patent US8598203B2 (Teva Pharmaceutical Industries, Ltd., priority 2009, dated 2013)
# Tests used:
# [1] = previous pharmacokinetic studies of laquinimod (time to steady state, oral bioavailability); assay type: in vivo; details: with loading dose regimen (double the intended dose for the first two days)
# Excerpt: In order to decrease thee time to steady state and potentially decrease time to response, a loading dose regimen described below is used to allow steady state levels to be reached in approximately 6-7 days.
# [2] = background statement; cited from earlier work
# [3] = test system: subjects with moderate to severe Crohn's disease (CDAI score of 220-450); assay: Phase IIa clinical trial of oral laquinimod in active moderate to severe Crohn's disease; assay type: in vivo, human; details: for dependence on steroids: moderate to severe Crohn's disease; for C-Reactive Protein level / clinical remission / clinical response / disease progression and/or disease complication / fecal calprotein level / number of open draining fistulas / symptoms of Crohn's disease: moderate to severe Crohn's disease (CDAI 220-450)
# Procedure: Overall up to ˜180 Crohn's disease patients are enrolled. […] The capsules were prepared using a blend proportional to the 0.6 mg capsules described in PCT International Application No. PCT/US2007/013721 (WO 2007/146248). The capsules were prepared according to the method described in PCT International Application No. PCT/US2007/013721 (WO 2007/146248), which is hereby incorporated by reference into this application. A loading dose regimen of double the maintenance/intended dose is given during the first two days of study drug treatment. Thereafter, starting on day 3, the daily maintenance/intended dose is administered. Subjects are required to maintain CDAI diary cards for each day of the screening period and, if randomized, on each day of the treatment and follow-up period. The scores obtained from the seven consecutive diaries completed prior to the baseline visit and to each of weeks 1, 2, 4, 6, 8 and 12 contribute to a total CDAI score at each of the time points. Moderate to severe Crohn's disease (CD) subjects as determined by a Crohn's Disease Activity Index (CDAI) score of 220-450 (inclusive). […] Each dose is studied sequentially in a distinct cohort. Scheduled in-clinic visits are conducted at screening, baseline and at weeks 1, 2, 4, 6 and 8. […] Subjects who early-discontinues study drug prior to visit week 8 go to follow-up termination visit within 4 weeks (28 days) of study drug discontinuation. A loading dose regimen of the study drug is given during the first two days of treatment (day 1/baseline and thereafter). The first loading dose of the study is administered at the site. The loading dose is double the intended dose for the first two days and is administered twice daily (BID) with 12 hour interval between dosing. Thereafter, starting on day 3, the dosing regimen consists of the intended dose once daily (QD) (see Table 1): • 1. Day 1 (Baseline): loading dose of the drug (intended dose at 0 hour, at the site and intended dose at 12 hours). Total dose is twice the intended dose. • 2. Day 2: loading dose of the study drug (intended dose at 0 hour and intended dose at 12 hours). Total dose is twice the intended dose. • 3. Day 3: Intended/maintenance dose of the study drug. […] Proportion of subjects in clinical remission (total CDAI score <150) at weeks 4, 6, 8 and 12. • 2. Proportion of subjects who respond to treatment (decrease from baseline of at least 100 points in CDAI score ore remission) at week 4, 6, 8 and 12. • 3. Time to remission. • 4. Time to response. • 5. C-Reactive Protein (CRP) change from baseline at weeks 2, 4, 6, 8 and 12. • 6. Fecal calprotectin change from baseline to weeks 2, 4, 6, 8 and 12. • 7. Proportion of subjects with a decrease from baseline of at least 50% in the number of open draining fistulas. Safety/Tolerability • 1. Adverse events (AEs). • 2. Clinical laboratory values. • 3. Vital signs. • 4. ECG. • 5. Proportion of subjects who prematurely discontinue treatment. • 6. Proportion of subjects who prematurely discontinue treatment due to AEs. • 7. Time to premature treatment discontinuation. • 8. Time to premature treatment discontinuation due to AEs. Determination of the Highest Tolerable Dose
compound,measurement,setting,value
CCN(C(=O)c1c(O)c2c(Cl)cccc2n(C)c1=O)c1ccccc1 [laquinimod],time to reach steady state levels,[1],6 to 7 days
same,oral bioavailability,[2],high oral bioavailability
same,dependence on steroids,[3]; 0.5 mg/day oral,lowers
same,C-Reactive Protein level,[3]; 0.5 mg/day oral,lowers
same,clinical remission,[3]; 0.5 mg/day oral,induces and/or maintains
same,clinical response,[3]; 0.5 mg/day oral,induces
same,disease progression and/or disease complication,[3]; 0.5 mg/day oral,inhibits
same,fecal calprotein level,[3]; 0.5 mg/day oral,lowers
same,number of open draining fistulas,[3]; 0.5 mg/day oral,reduces
same,symptoms of Crohn's disease,[3]; 0.5 mg/day oral,reduces
same,dependence on steroids,[3]; 1.0 mg/day oral,lowers
same,C-Reactive Protein level,[3]; 1.0 mg/day oral,lowers
same,clinical remission,[3]; 1.0 mg/day oral,induces and/or maintains
same,clinical response,[3]; 1.0 mg/day oral,induces
same,disease progression and/or disease complication,[3]; 1.0 mg/day oral,inhibits
same,fecal calprotein level,[3]; 1.0 mg/day oral,lowers
same,number of open draining fistulas,[3]; 1.0 mg/day oral,reduces
same,symptoms of Crohn's disease,[3]; 1.0 mg/day oral,reduces
same,dependence on steroids,[3]; 1.5 mg/day oral,lowers
same,C-Reactive Protein level,[3]; 1.5 mg/day oral,lowers
same,clinical remission,[3]; 1.5 mg/day oral,induces and/or maintains
same,clinical response,[3]; 1.5 mg/day oral,induces
same,disease progression and/or disease complication,[3]; 1.5 mg/day oral,inhibits
same,fecal calprotein level,[3]; 1.5 mg/day oral,lowers
same,number of open draining fistulas,[3]; 1.5 mg/day oral,reduces
same,symptoms of Crohn's disease,[3]; 1.5 mg/day oral,reduces
same,dependence on steroids,[3]; 2.0 mg/day oral,lowers
same,C-Reactive Protein level,[3]; 2.0 mg/day oral,lowers
same,clinical remission,[3]; 2.0 mg/day oral,induces and/or maintains
same,clinical response,[3]; 2.0 mg/day oral,induces
same,disease progression and/or disease complication,[3]; 2.0 mg/day oral,inhibits
same,fecal calprotein level,[3]; 2.0 mg/day oral,lowers
same,number of open draining fistulas,[3]; 2.0 mg/day oral,reduces
same,symptoms of Crohn's disease,[3]; 2.0 mg/day oral,reduces
